Data from patent US8748594B2, “Process for the preparation and purification of topiramate” (Scinopharm Taiwan, Ltd., priority 2010, dated 2014).

Experiment: Solubility of topiramate in the first organic solvent (xylene, toluene)
Type: physicochemical
Description: It was further observed that the yield during the precipitation step can be improved when using xylene instead of toluene in the present invention. This is attributed to the fact that topiramate is less soluble in xylene compared to toluene. The solubility of topiramate in xylene was detected to be 0.0025 mg per mg xylene whereas the solubility of topiramate in toluene is 0.008 mg per mg solvent. Therefore, when using xylene as the first solvent in the present invention, the loss of topiramate in the mother liquid can be reduced.

Question: Which “solubility of topiramate in toluene” value (solvent toluene) does the source give for `CC1(C)O[C@@H]2[C@@H](CO[C@@]3(COS(N)(=O)=O)OC(C)(C)O[C@@H]23)O1` [topiramate, 2,3:4,5-bis-O-(1-methylethylidene)-β-D-fructopyranose sulfamate] here?
Answer: Its value is 0.008 mg per mg solvent.

Question: What about the “solubility of topiramate in xylene” value (solvent xylene) of the same compound?
Answer: Its value is 0.0025 mg per mg xylene.
